In brackets after ≈: the same amount, converted by molar mass. Several values for one entry are separate records, joined by “and”; a condition that tells them apart may be missing. Equal entries are not always repeated.
How the values were obtained:
Candida Krusei = test: agar dilution in vitro activity test; type: cell-based; conditions: 22 organisms, Kimmig's agar, 25° C.; for MIC: Pichia kudriavzevii, read-out: GMMICS (geometric mean minimum inhibitory concentration)
Protocol: (§1) Organisms listed in Table 1 were tested according to an agar dilution method: Suspensions of each microorganism were prepared to contain […] colony forming units (cfu)/mL. All drugs were dissolved in a few drops of DMSO then diluted with ethanol—water (1/1, v/v) to make a stock solution of 500 μg/mL. The agar dilution method was performed in a medium of Kimmig's agar (K. A., Merck) −0.5% glycerol [R. A. Fromtling, G. K. Abruzzo and A. Ruiz, Mycopathologia, 106 (1989) 163-166]. Plates of Kimmig's agar containing serial dilutions (25 to 0.01 μg/mL) of the drugs were inoculated with 10 μL of the fungal inocula and incubated at 25° C. […] for yeasts and up to 5 days for filamentous fungi. Following incubation, GMMICs (geometric mean minimum inhibitory concentration μg/mL) were determined. In the table POCZ indicates posaconazole, ITRZ indicates itraconazole, EQUZ indicates Equaconazole, and FLUZ indicates fluconazole [Patterson, T. F., S. G. Revankar, W. R. Kirkpatrick, O. Dib, A. W. Fothergill, S. W. Redding, D. A. Sutton, and M. G. Rinaldi, J. Clin. Microbiol. 34 (1996) 1794-1797].

Microsporum canis = test: agar dilution in vitro activity test; type: cell-based; conditions: 6 organisms, Kimmig's agar, 25° C.; for MIC: read-out: GMMICS (geometric mean minimum inhibitory concentration)
Protocol: as §1

Cryptococcus neoformans = test: agar dilution in vitro activity test; type: cell-based; conditions: 10 organisms, Kimmig's agar, 25° C.; for MIC: read-out: GMMICS (geometric mean minimum inhibitory concentration)
Protocol: as §1

Aspergillus Flavus = test: agar dilution in vitro activity test; type: cell-based; conditions: 9 organisms, Kimmig's agar, 25° C.; for MIC: read-out: GMMICS (geometric mean minimum inhibitory concentration)
Protocol: as §1

Trichophyton rubrum = test: agar dilution in vitro activity test; type: cell-based; conditions: 17 organisms, Kimmig's agar, 25° C.; for MIC: read-out: GMMICS (geometric mean minimum inhibitory concentration)
Protocol: as §1

[1] = test system: Ergosterol Biosynthesis, Candida albicans_C286; test: inhibition of ergosterol biosynthesis; type: cell-based, Candida albicans; conditions: Candida albicans_C286, RPMI-1640, 30° C., 48 h
Protocol: (§2) Compounds of the invention were tested for their ability to inhibit ergosterol biosynthesis. Testing was performed in 96-well round-bottom microtitration plates (Table 2). Cell suspensions were prepared in RPMI-1640 medium and were adjusted to give a final inoculum concentration of 0.5×10^3 to 2.5×10^3 cells/ml. The plates were incubated incubated at 30° C. for 48 h before growth was assessed. The MIC of each compounds was defined as the lowest concentration at which there was 80% inhibition of growth compared with that in a drug-free control [O. N. Breivik and J. L. Owades, Agric. Food Chem., 5 (1957) 360-363; T. F. Patterson, S. G. Revankar, W. R. Kirkpatrick, O. Dib, A. W. Fothergill, S. W. Redding, D. A. Sutton and M. G. Rinaldi, J. Clin. Microbiol., 34 (1996) 1794-1797]. Ergosterol content was calculated as a percentage of the wet weight of the cell [National Committee for Clinical Laboratory Standards. 1997. Reference method for broth dilution antifungal susceptibility testing of yeasts, Approved standard. Document M27-A, National Committee for Clinical Laboratory Standards, Wayne, Pa.].

[2] = PK study of antifungal nasal spray, plasma level after intranasal dosing; type: in vivo, Gottingen mini-pigs
Protocol: Experiments were performed to determine blood levels of Posaconazole formulation after intranasal dosing in Gottingen mini-pigs. A Group of three male and three female mini-pigs (ages from 6 to 9 months) were used for the studies. The vehicle used in the experiments was 5% of PEG-12 GDM in saline solution. The intranasal administration was performed with 35 mL of Luer slip syringes. HPLC-MS analyses were performed on heparinized mini-pig plasma samples obtained typically at 0 hr, 0.08 hr, 1 hr, 2 hr, 4 hr, 12 hr and 24 hr after dosing. The drug was first isolated from plasma with a sample pre-treatment. Acetonitrile were used to remove proteins in samples. An isocratic HPLC-MS method was then used to separate the drug from any potential interference. Drug levels were measured by MS detection with a multiple reaction monitoring (MRM) mode.

[3] = test system: Ergosterol Biosynthesis, Aspergillus fumigatus_ND 158; test: inhibition of ergosterol biosynthesis; type: cell-based, Aspergillus fumigatus; conditions: Aspergillus fumigatus_ND 158, RPMI-1640, 30° C., 48 h
Protocol: as §2

`OC(Cn1cncn1)(Cn1cncn1)c1ccc(F)cc1F` [FLUZ, fluconazole] showed an MIC (Candida Krusei) of 65 µg/mL (≈ 212 µM), an MIC (Microsporum canis) of 151 µg/mL (≈ 493 µM) and an MIC (Cryptococcus neoformans) of 45 µg/mL (≈ 147 µM). The MIC (Aspergillus Flavus) was > 235 µg/mL and the MIC (Trichophyton rubrum) was 105 µg/mL (≈ 343 µM).
`CCC(C)n1ncn(-c2ccc(N3CCN(c4ccc(OCC5COC(Cn6cncn6)(c6ccc(Cl)cc6Cl)O5)cc4)CC3)cc2)c1=O` (stereo not drawn) [ITRZ, itraconazole] gave an IC50 [1] of 39.1 nM, an MIC (Candida Krusei) of 0.6 µg/mL (≈ 0.85 µM) and an MIC (Microsporum canis) of 1.2 µg/mL (≈ 1.7 µM). It also gave an MIC (Cryptococcus neoformans) of 0.49 µg/mL (≈ 0.694 µM), an MIC (Aspergillus Flavus) of 0.35 µg/mL (≈ 0.496 µM) and an MIC (Trichophyton rubrum) of 3.1 µg/mL (≈ 4.39 µM).
For `CC[C@@H]([C@H](C)O)n1ncn(-c2ccc(N3CCN(c4ccc(OC[C@@H]5CO[C@@](Cn6cncn6)(c6ccc(F)cc6F)C5)cc4)CC3)cc2)c1=O` [POCZ, posaconazole], the MIC (Candida Krusei) was 0.21 µg/mL (≈ 0.3 µM), the MIC (Microsporum canis) was 0.5 µg/mL (≈ 0.713 µM) and the MIC (Cryptococcus neoformans) was 0.24 µg/mL (≈ 0.342 µM). For the same molecule, the MIC (Aspergillus Flavus) was 0.12 µg/mL (≈ 0.171 µM), the MIC (Trichophyton rubrum) was 1.2 µg/mL (≈ 1.71 µM) and the “Posaconazole Level in Mini-pig Plasma” value ([2]; 0.08 hour after intranasal dosing, 5% PEG-12 GDM in saline, individual animals, female mini-pigs) was 1.23 ng/mL and 1.39 ng/mL and 1.21 ng/mL. For the same molecule, the “Posaconazole Level in Mini-pig Plasma” value ([2]; 0.08 hour after intranasal dosing, 5% PEG-12 GDM in saline, individual animals, male mini-pigs) was 1.74 ng/mL and 1.56 ng/mL, the “Posaconazole Level in Mini-pig Plasma” value ([2]; 1 hour after intranasal dosing, 5% PEG-12 GDM in saline, individual animals, female mini-pigs) was 2.06 ng/mL and 1.86 ng/mL and 1.26 ng/mL and the “Posaconazole Level in Mini-pig Plasma” value ([2]; 1 hour after intranasal dosing, 5% PEG-12 GDM in saline, individual animals, male mini-pigs) was 1.24 ng/mL and 1.26 ng/mL. The “Posaconazole Level in Mini-pig Plasma” value ([2]; 4 hour after intranasal dosing, 5% PEG-12 GDM in saline, individual animals, female mini-pigs) was 1.28 ng/mL and 1.17 ng/mL and 1.56 ng/mL, the “Posaconazole Level in Mini-pig Plasma” value ([2]; 4 hour after intranasal dosing, 5% PEG-12 GDM in saline, individual animals, male mini-pigs) was 1.42 ng/mL and 1.46 ng/mL and the “Posaconazole Level in Mini-pig Plasma” value ([2]; 12 hour after intranasal dosing, 5% PEG-12 GDM in saline, individual animals, female mini-pigs) was 2.03 ng/mL and 2.44 ng/mL and 2.35 ng/mL. The “Posaconazole Level in Mini-pig Plasma” value ([2]; 12 hour after intranasal dosing, 5% PEG-12 GDM in saline, individual animals, male mini-pigs) was 2.41 ng/mL and 1.93 ng/mL, the “Posaconazole Level in Mini-pig Plasma” value ([2]; 24 hour after intranasal dosing, 5% PEG-12 GDM in saline, individual animals, female mini-pigs) was 1.17 ng/mL and 2.04 ng/mL and 1.46 ng/mL and the “Posaconazole Level in Mini-pig Plasma” value ([2]; 24 hour after intranasal dosing, 5% PEG-12 GDM in saline, individual animals, male mini-pigs) was 1.86 ng/mL and 1.66 ng/mL. The concentration at 0.08 h ([2]; both sexes, Gottingen, minipig, plasma, other: intranasal, 0.08 hour after intranasal dosing, 5% PEG-12 GDM in saline, individual animals, read-out: Posaconazole Level in Mini-pig Plasma) was 1.35 ng/mL, the concentration at 1 h ([2]; both sexes, Gottingen, minipig, plasma, other: intranasal, 1 hour after intranasal dosing, 5% PEG-12 GDM in saline, individual animals, read-out: Posaconazole Level in Mini-pig Plasma) was 1.62 ng/mL and the concentration at 4 h ([2]; both sexes, Gottingen, minipig, plasma, other: intranasal, 4 hour after intranasal dosing, 5% PEG-12 GDM in saline, individual animals, read-out: Posaconazole Level in Mini-pig Plasma) was 1.26 ng/mL. For the same molecule, the concentration at 12 h ([2]; both sexes, Gottingen, minipig, plasma, other: intranasal, 12 hour after intranasal dosing, 5% PEG-12 GDM in saline, individual animals, read-out: Posaconazole Level in Mini-pig Plasma) was 1.96 ng/mL, the concentration at 24 h ([2]; both sexes, Gottingen, minipig, plasma, other: intranasal, 24 hour after intranasal dosing, 5% PEG-12 GDM in saline, individual animals, read-out: Posaconazole Level in Mini-pig Plasma) was 1.86 ng/mL and the “amount detected in mini-pig plasma after dosing (in words)” value ([2]; intranasal dosing with formulated Posaconazole) was “Only trace amounts”.
With Equaconazole [EQUZ] the IC50 [1] was 31.1 nM, the “GMMICS (geometric mean minimum inhibitory concentration)” value (Candida Krusei) was 0.15 µg/mL and the “GMMICS (geometric mean minimum inhibitory concentration)” value (Microsporum canis) was 0.35 µg/mL. For the same molecule, the “GMMICS (geometric mean minimum inhibitory concentration)” value (Cryptococcus neoformans) was 0.25 µg/mL, the “GMMICS (geometric mean minimum inhibitory concentration)” value (Aspergillus Flavus) was 0.09 µg/mL and the “GMMICS (geometric mean minimum inhibitory concentration)” value (Trichophyton rubrum) was 0.10 µg/mL. For the same molecule, the IC50 [3] was 9.8 nM.
